# From ChEMBL document CHEMBL3632591, “Discovery and structural diversity of the hepatitis C virus NS3/4A serine protease inhibitor series leading to clinical candidate IDX320” (Bioorg Med Chem Lett, 2015)
# Columns and labels:
# [1] = Half life in rat liver microsomes; type: ADME
# [2] = Intrinsic clearance in monkey liver microsomes; type: ADME, Macaca mulatta; conditions: rhesus monkey, read-out: CLH
# [3] = Intrinsic clearance in rat liver microsomes; type: ADME; conditions: read-out: CLH
# [4] = Intrinsic clearance in human liver microsomes; type: ADME; conditions: read-out: CLH
# [5] = Cytotoxicity against human HuH7 cells by colorimetric proliferation assay; type: cell-based, Huh-7
# [6] = tested on: Hepatitis C virus; experiment: Antiviral activity against HCV genotype 1b infected in human HuH7 cells after 3 days by luciferase assay; type: functional, organism-based, Hepacivirus hominis; conditions: Huh-7, 72 h
# [7] = Inhibition of recombinant full length HCV genotype 1b NS3/4A protease by FRET assay; set-up: species or system Hepatitis C virus subtype 1b
# [8] = Intrinsic clearance in rat cryopreserved hepatocytes assessed per 10^6 cells; type: ADME, cell-based, Hepatocyte; conditions: read-out: CLH
SMILES,half-life [1] [min],microsomal CLint [2] [µL/min/mg],microsomal CLint [3] [µL/min/mg],microsomal CLint [4] [µL/min/mg],CC50 [5] [nM],EC50 [6] [nM],IC50 [7] [nM],hepatocyte CLint [8] [µL/min/1e6 cells]
COc1ccc2c(OC[C@@H]3C[C@H]4C(=O)N(C)CCCC/C=C/[C@@H]5C[C@@]5(C(=O)NS(=O)(=O)C5(C)CC5)NC(=O)N34)cc(-c3nc(C(C)C)cs3)nc2c1C,3.8,500,364,299,–,–,–,–
C=Cc1csc(-c2cc(O[C@H]3C[C@H]4C(=O)N(C)CCCC/C=C/[C@@H]5C[C@@]5(C(=O)NS(=O)(=O)C5(C)CC5)NC(=O)N4C3)c3ccc(OC)c(Cl)c3n2)n1,–,–,–,–,57100,4,0.8,–
COc1ccc2c(OC[C@@H]3C[C@H]4C(=O)N(C)CCCC/C=C/[C@@H]5C[C@@]5(C(=O)NS(=O)(=O)C5(C)CC5)NC(=O)N34)cc(-c3nc(C(C)C)cs3)nc2c1Cl,8,500,182,472,–,–,–,–
COc1ccc2c(O[C@H]3C[C@H]4C(=O)N(C)CCCC/C=C/[C@@H]5C[C@@]5(C(=O)NS(=O)(=O)C5(C)CC5)NC(=O)N4C3)cc(-c3csc(C(F)(F)F)n3)nc2c1Cl,–,–,–,–,59000,19,1,–
COc1ccc2c(O[C@H]3C[C@H]4C(=O)N(C)CCCC/C=C/[C@@H]5C[C@@]5(C(=O)NS(=O)(=O)C5(C)CC5)NC(=O)N4C3)cc(-n3cc(C(C)C)cn3)nc2c1C,–,–,–,–,9610,65,0.9,–
COc1ccc2c(O[C@H]3C[C@H]4C(=O)N(C)CCCC/C=C/[C@@H]5C[C@@]5(C(=O)NS(=O)(=O)C5(C)CC5)NC(=O)N4C3)cc(-c3nc(C(C)C)cs3)nc2c1Cl,143,66.8,9.7,18.5,48500,56,2.3,11.2
COc1ccc2c(O[C@H]3C[C@H]4C(=O)N(C)CCCC/C=C/[C@@H]5C[C@@]5(C(=O)NS(=O)(=O)C5(C)CC5)NC(=O)N4C3)cc(-c3nc(C(C)C)cs3)nc2c1Br,–,–,–,–,51200,29,0.5,–
COc1ccc2c(O[C@H]3C[C@H]4C(=O)N(C)CCCC/C=C/[C@@H]5C[C@@]5(C(=O)NS(=O)(=O)C5(C)CC5)NC(=O)N4C3)cc(C#N)nc2c1C,–,–,–,–,55800,499,6.4,–
C#Cc1csc(-c2cc(O[C@H]3C[C@H]4C(=O)N(C)CCCC/C=C/[C@@H]5C[C@@]5(C(=O)NS(=O)(=O)C5CC5)NC(=O)N4C3)c3ccc(OC)c(C)c3n2)n1,–,–,–,–,14400,2.8,0.9,–
COc1ccc2c(O[C@H]3C[C@H]4C(=O)N(C)CCCC/C=C/[C@@H]5C[C@@]5(C(=O)NS(=O)(=O)C5(C)CC5)NC(=O)N4C3)cc(-n3cc(C(F)(F)F)cn3)nc2c1Cl,–,–,–,–,21900,27,0.4,–
C#Cc1csc(-c2cc(O[C@H]3C[C@H]4C(=O)N(C)CCCC/C=C/[C@@H]5C[C@@]5(C(=O)NS(=O)(=O)C5(C)CC5)NC(=O)N4C3)c3ccc(OC)c(C)c3n2)n1,–,–,–,–,75000,2.7,0.9,–
COc1ccc2c(O[C@H]3C[C@H]4C(=O)N(C)CCCC/C=C/[C@@H]5C[C@@]5(C(=O)NS(=O)(=O)C5(C)CC5)NC(=O)N4C3)cc(-c3csc(C(C)C)n3)nc2c1Cl,–,–,–,–,30200,32,0.8,–
COc1ccc2c(O[C@H]3C[C@H]4C(=O)N(C)CCCC/C=C/[C@@H]5C[C@@]5(C(=O)NS(=O)(=O)C5(C)CC5)NC(=O)N4C3)cc(-c3nc(C(C)C)cs3)nc2c1,–,–,–,–,42700,508,1.7,–
C#Cc1cccc(-c2cc(O[C@H]3C[C@H]4C(=O)N(C)CCCC/C=C/[C@@H]5C[C@@]5(C(=O)NS(=O)(=O)C5(C)CC5)NC(=O)N4C3)c3ccc(OC)c(C)c3n2)c1,–,–,–,–,75000,85,7,–
COc1ccc2c(O[C@H]3C[C@H]4C(=O)N(C)CCCC/C=C/[C@@H]5C[C@@]5(C(=O)NS(=O)(=O)C5CC5)NC(=O)N4C3)cc(-c3nc(C)cs3)nc2c1Cl,–,–,–,–,75000,22,1,–
COc1ccc2c(O[C@H]3CCN4C(=O)N(C)CCCC/C=C/[C@@H]5C[C@@]5(C(=O)NS(=O)(=O)C5CC5)NC(=O)[C@@H]4C3)cc(-c3nc(C(F)(F)F)cs3)nc2c1C,–,–,–,–,> 75000,0.9,0.4,–
COc1ccc2c(O[C@H]3C[C@H]4C(=O)N(C)CCCC/C=C/[C@@H]5C[C@@]5(C(=O)NS(=O)(=O)C5(C)CC5)NC(=O)N4C3)cc(-c3cc(C(C)C)on3)nc2c1Cl,–,–,–,–,75000,669,3.7,–
COc1ccc2c(O[C@H]3C[C@H]4C(=O)N(C)CCCC/C=C/[C@@H]5C[C@@]5(C(=O)NS(=O)(=O)C5(C)CC5)NC(=O)N4C3)cc(-c3nc(C#N)cs3)nc2c1Cl,–,–,–,–,75000,89,10,–
COc1ccc2c(O[C@H]3C[C@H]4C(=O)N(C)CCCC/C=C/[C@@H]5C[C@@]5(C(=O)NS(=O)(=O)C5(C)CC5)NC(=O)N4C3)cc(-c3nc(C(C)C)cs3)nc2c1C,112,37.8,12.6,9.8,> 75000,72,1.8,12.3
COc1cc2c(O[C@H]3C[C@H]4C(=O)N(C)CCCC/C=C/[C@@H]5C[C@@]5(C(=O)NS(=O)(=O)C5(C)CC5)NC(=O)N4C3)cc(-c3nc(C(C)C)cs3)nc2cc1Cl,–,–,–,–,> 75000,191,8.6,–
COc1ccc2c(O[C@H]3C[C@H]4C(=O)N(C)CCCC/C=C/[C@@H]5C[C@@]5(C(=O)NS(=O)(=O)C5CC5)NC(=O)N4C3)cc(-c3nc(C4CC4)cs3)nc2c1Cl,–,–,–,–,31200,21,1,–
C#Cc1csc(-c2cc(O[C@H]3C[C@H]4C(=O)N(C)CCCC/C=C/[C@@H]5C[C@@]5(C(=O)NS(=O)(=O)C5(C)CC5)NC(=O)N4C3)c3ccc(OC)c(Cl)c3n2)n1,–,–,–,–,17000,4,0.5,–
COc1ccc2c(O[C@H]3C[C@H]4C(=O)N(C)CCCC/C=C/[C@@H]5C[C@@]5(C(=O)NS(=O)(=O)C5(C)CC5)NC(=O)N4C3)cc(-n3cc(C(C)C)nn3)nc2c1Cl,–,–,–,–,28500,593,7.3,–
COc1ccc2c(O[C@H]3C[C@H]4C(=O)N(C)CCCC/C=C/[C@@H]5C[C@@]5(C(=O)NS(=O)(=O)C5(C)CC5)NC(=O)N4C3)cc(-c3nc(C(C)C)cs3)nc2c1F,–,–,–,–,33500,538,3.5,–
COc1ccc2c(O[C@H]3C[C@H]4C(=O)N(C)CCCC/C=C/[C@@H]5C[C@@]5(C(=O)NS(=O)(=O)C5CC5)NC(=O)N4C3)cc(-c3noc(C)n3)nc2c1C,–,–,–,–,75000,> 750,25.7,–
COc1ccc2c(O[C@H]3C[C@H]4C(=O)N(C)CCCC/C=C/[C@@H]5C[C@@]5(C(=O)NS(=O)(=O)C5(C)CC5)NC(=O)N4C3)cc(-c3nc(C4CCC4)cs3)nc2c1Cl,–,–,–,–,75000,29,1.3,–
COc1ccc2c(O[C@H]3C[C@H]4C(=O)N(C)CCCC/C=C/[C@@H]5C[C@@]5(C(=O)NS(=O)(=O)C5CC5)NC(=O)N4C3)cc(-c3csc(C(F)(F)F)n3)nc2c1C,59,39.9,23.7,27.1,75000,8,0.9,30
C#Cc1csc(-c2cc(O[C@H]3CCN4C(=O)N(C)CCCC/C=C/[C@@H]5C[C@@]5(C(=O)NS(=O)(=O)C5(C)CC5)NC(=O)[C@@H]4C3)c3ccc(OC)c(C)c3n2)n1,–,–,–,–,> 75000,0.2,0.6,–
